Data as given in patent US20050232860A1, “Use of edg-receptor agonists for the treatment of hypertension” (priority 2001, published 2005).

Tested on: α2-adrenoceptors
Experiment: [^3H]rauwolscine radioligand binding to membranes from undifferentiated PC12 cells
Parameters: species or system rat
Conditions: 16.8 nM radioligand; for [^3H]Rauwolscine binding: n=4
Procedure: Results are expressed as mean values±SEM. All experiments were carried out in triplicate.

## COC(=O)[C@H]1[C@H]2C[C@H]3c4[nH]c5ccccc5c4CCN3C[C@H]2CC[C@@H]1O [[^3H]Rauwolscine, [O-methyl-3H]rauwolscine]
Absence of 10 μM rauwolscine
  [^3H]Rauwolscine binding as % of the radioactivity added to each assay: 0.19±0.01%
  [^3H]Rauwolscine binding: 134.0±7.1 fmol/mg protein
Presence of 10 μM rauwolscine
  [^3H]Rauwolscine binding as % of the radioactivity added to each assay: 0.19±0.01%
  [^3H]Rauwolscine binding: 132.8±7.0 fmol/mg protein
